tested on: T1, wheat PPO (purified wheat bran polyphenol oxidase); assay: spectrophotometric oxidation assay at […] nm, Lineweaver-Burk; assay type: biochemical, Triticum aestivum; settings: 50 mM phosphate pH 6.5, 35 °C, 2-10 mM substrate
T1 construct: gene PPO-A1; native, purified from wheat bran (ammonium sulfate, DEAE-Sepharose, Superdex G-75); approx. 21 kDa on SDS-PAGE, dual bands 21 and 17 kDa

Km [mM] | SMILES
8.01 ± 0.46 | Oc1cc(O)c2c(c1)O[C@H](c1ccc(O)c(O)c1)[C@H](O)C2 [epicatechin]
9.05 ± 0.18 | Oc1cc(O)c2c(c1)O[C@H](c1cc(O)c(O)c(O)c1)[C@H](O)C2 [epigallocatechin]
7.37 ± 0.71 | Oc1cccc(O)c1O [pyrogallic acid]
7.9 ± 0.64 | O=C(O[C@@H]1Cc2c(O)cc(O)cc2O[C@@H]1c1ccc(O)c(O)c1)c1cc(O)c(O)c(O)c1 [epicatechin gallate]

SMILES | Km [mM]
O=C(O)c1cc(O)c(O)c(O)c1 [gallic acid] | 7.05 ± 0.47
Oc1ccccc1O [catechol] | 6.36 ± 0.71
O=C(O[C@@H]1Cc2c(O)cc(O)cc2O[C@@H]1c1cc(O)c(O)c(O)c1)c1cc(O)c(O)c(O)c1 [epigallocatechin gallate] | 7.7 ± 0.14
